According to patent publication US9290487B2, “Pharmaceutical composition for treating diabetes” (Ajinomoto Co., Inc., priority 2011, dated 2016):
Where two headings read alike, the source gives them in different places.

What was measured:
PPAR-α = PPAR-α (Homo sapiens (Human), UniProt Q07869); assay: Measurement of PPAR-α activity (GAL4 luciferase reporter assay in CV-1 cells); format: cell-based; settings: 100(A/B), B = compound in WO/2011/058154 at 100 μM, read-out: PPARα relative fold induction (%)
Protocol: The PPAR-α activity was measured according to the published article (THE JOURNAL OF BIOLOGICAL CHEMISTRY Vol. 270, No. 22, 12953-12956, 1995).
Plasmids used for the PPAR-α activity measurement were constructed as follows. A luciferase expression plasmid (UASx5-TK-Luc) used was obtained by introducing a sequence, in which five yeast GAL4-binding sequences are linked in tandem, upstream of a thymidine kinase promoter of pTAL-Luc (Takara Bio Inc., 6252-1). A PPAR-α receptor expression plasmid (hGR-GAL4-hPPARα) used was obtained by introducing a human GR N-terminal region (1-76 aa), a yeast GAL4 DNA-binding region (1-147 aa), and a PPARα ligand-binding region (167-468 aa) between a Not I site and a Sal I site of pExchange-1 Core Vector (Invitrogen Corporation, 211176).
A reporter assay was conducted by the following method using Cercopithecus aethiops kidney-derived CV-1 cells. The CV-1 cells were seeded in a 96-well plate (Thermo Fisher Scientific Inc., 4938) at 2×10^4 cells/well using a 10% FBS-containing DMEM (Nacalai Tesque, Inc., 0845874) medium. After culturing under conditions of 37° C. and 5% CO2 for 2 hours, the plasmids were transfected. Lipofectamine LTX (Invitrogen Corporation, 15338-100) was used for the transfection according to the attached manual. The plasmid solution was prepared by adding a mixture solution of the luciferase expression plasmid and the PPAR-α receptor expression plasmid to OPTI-MEM I (Invitrogen Corporation, 11058-021). After the transfection was conducted, the test compound was added, and cultured at 37° C. in the presence of 5% CO2 for 18 to 20 hours. After the culturing was completed, the luciferase activity was measured with Luminescensor JNR (ATTO) using Bright-Glo (Promega Corporation, E2620).
The fold induction of PPAR-α by the test compounds was calculated by the following method. For the compounds of Examples 1, 4, 5, 7, and 9, PPAR-α relative fold induction (%) was defined as 100 (A/B), where A represents the maximum value of PPAR-α activities with the test compound at 0.3 μM, 1 μM, 3 μM, 10 μM, 30 μM, and 100 μM, and B represents the PPAR-α activity with the compound in WO/2011/058154 at 100 μM. For the compounds of Examples 11, 15, 19, 22, 26, and 32, PPAR-α relative fold induction (%) was defined as 100 (A/B), where A represents the maximum value of PPAR-α activities with the test compound at 3 μM, 10 μM, 30 μM, and 100 μM, and B represents the PPAR-α activity with the compound in WO/2011/058154 at 100 μM.

[1] = biological target: human GYS1 (glycogen synthase) (Homo sapiens (Human), UniProt P13807); assay: Measurement of glycogen synthase activity (coupled pyruvate kinase/lactate dehydrogenase assay, absorbance at 340 nm); format: biochemical; settings: concentration inducing relative activity of 50% (100% = Ex. 1 of WO/2011/058154 at 10 μM)
Protocol: A human GYS1 expression plasmid (pCDNA3.1(+)-hGYS1) was constructed by the following method. Using a human skeletal muscle cDNA of Human MTC Panel I (Takara Bio Inc., 636742) as a template, a human GYS1 gene was amplified by a PCR method using cloning primers (Forward Primer: ATGCCTTTAAACCGCAC (SEQ ID NO: 1), Reverse Primer: TTAGTTACGCTCCTCGC (SEQ ID NO: 2)). Using the amplified human GYS1 sequence as a template, a restriction enzyme sequence was added by a PCR method using sub-cloning primers (Forward Primer: […] (SEQ ID NO: 3), Reverse Primer: […] (SEQ ID NO: 4)). Then, the human GYS1 gene was introduced between a Xho I site and a Xba I site of pCDNA3.1(+) (Invitrogen Corporation, V790-20).
Glycogen synthase was prepared by the following method according to the published article (THE JOURNAL OF BIOLOGICAL CHEMISTRY Vol. 269, No. 41, 25534-25542, 1994). Human kidney-derived HEK293T cells were seeded in a dish (Thermo Fisher Scientific Inc., 168381) using a 10% FBS-containing DMEM (Nacalai Tesque, Inc., 0845874) medium, and cultured overnight. Then, using Lipofectamine LTX (Invitrogen Corporation, 15338-100), the human GYS1 expression vector was transfected according to the attached manual. After culturing under conditions of 37° C. and 5% CO2 for 2 days, the resultant was dissolved in a lysis buffer (50 mM Tris-HCl (pH 8.0), 10 mM EDTA, 2 mM EGTA, 100 mM NaF, 1 mM PMSF, 1 mM DTT, 1× Complete (Roche Diagnostics K. K., 1873580)), homogenized, and then centrifuged at 16000×g at 4° C. for 15 minutes. To the precipitated fraction, a lysis buffer was added. Re-dissolved fractions were used as glycogen synthase for evaluation.
The glycogen synthase activity was measured by the following method. To a polystyrene 96-well plate, a solution containing 30 mM glycylglycine (pH 7.3), 40 mM KCl, 20 mM MgCl2, 9.2% DMSO containing one of the test compounds at various concentrations, and 10 mM glucose-6-phosphate (Sigma-Aldrich Corporation, G7879) was added by 12 μL/well.
Next, a substrate solution containing 30 mM glycylglycine (pH 7.3), 4.3 mg/mL of glycogen (Sigma-Aldrich Corporation, G8876), 21.6 mM UDP-glucose (Sigma-Aldrich Corporation, U4625), 21.6 mM phosphoenolpyruvic acid (Sigma-Aldrich Corporation, P0564), and 4.05 mM NADH (Sigma-Aldrich Corporation, N8129) was added by 18 μL/well.
Further, an enzyme solution containing 50 mM Tris-HCl (pH 8.0), 27 mM DTT (Nacalai Tesque, Inc., 14128-04), 0.2 mg/mL of bovine serum albumin, 0.17 mg/mL of the glycogen synthase, 1.5 μL of a pyruvate kinase/lactate dehydrogenase solution (Sigma-Aldrich Corporation, P0294) was added by 18 μL/well to prepare a reaction solution. After the reaction solution was incubated (at 30° C. for 25 minutes for Examples 1 to 10, at 37° C. for 20 minutes for Examples 11 to 75), the absorbance at 340 nm was measured using Benchmark Plus (Bio-Rad Laboratories, Inc.).
The activities of the test compounds were calculated by the following method. The change in the absorbance (ΔA340) was calculated by subtracting the absorbance at 340 nm of the reaction solution containing the compound and DMSO from the absorbance at 340 nm of a reaction solution not containing the compound but containing only DMSO. The ΔA340 of the reaction solution containing the compound of Example 1 in WO/2011/058154 at the final concentration of 10 μM was taken as 100% to calculate the relative activity (%) of the test compounds at various concentrations. EC50 representing the concentration of the compound which induces an increase in the relative activity to 50% was calculated using XLfit (idbs).

[2] = test concentrations not stated for these examples
[3] = incubation at 37° C. for 20 minutes (Examples 11 to 75)
[4] = A = maximum activity at 0.3, 1, 3, 10, 30 and 100 μM
[5] = incubation at 30° C. for 25 minutes (Examples 1 to 10)
[6] = A = maximum activity at 3, 10, 30 and 100 μM

Sequence of PPAR-α (Q07869 167-468): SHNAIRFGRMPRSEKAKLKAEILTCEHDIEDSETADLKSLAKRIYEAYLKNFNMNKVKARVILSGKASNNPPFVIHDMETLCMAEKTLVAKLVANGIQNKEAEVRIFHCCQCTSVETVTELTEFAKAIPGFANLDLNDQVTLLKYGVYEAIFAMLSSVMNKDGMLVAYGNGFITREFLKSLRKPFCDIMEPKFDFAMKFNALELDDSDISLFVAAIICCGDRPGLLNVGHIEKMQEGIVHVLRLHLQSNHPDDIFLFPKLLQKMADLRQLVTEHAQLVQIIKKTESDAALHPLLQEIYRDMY
Sequence of human GYS1 (glycogen synthase) (P13807 whole entry): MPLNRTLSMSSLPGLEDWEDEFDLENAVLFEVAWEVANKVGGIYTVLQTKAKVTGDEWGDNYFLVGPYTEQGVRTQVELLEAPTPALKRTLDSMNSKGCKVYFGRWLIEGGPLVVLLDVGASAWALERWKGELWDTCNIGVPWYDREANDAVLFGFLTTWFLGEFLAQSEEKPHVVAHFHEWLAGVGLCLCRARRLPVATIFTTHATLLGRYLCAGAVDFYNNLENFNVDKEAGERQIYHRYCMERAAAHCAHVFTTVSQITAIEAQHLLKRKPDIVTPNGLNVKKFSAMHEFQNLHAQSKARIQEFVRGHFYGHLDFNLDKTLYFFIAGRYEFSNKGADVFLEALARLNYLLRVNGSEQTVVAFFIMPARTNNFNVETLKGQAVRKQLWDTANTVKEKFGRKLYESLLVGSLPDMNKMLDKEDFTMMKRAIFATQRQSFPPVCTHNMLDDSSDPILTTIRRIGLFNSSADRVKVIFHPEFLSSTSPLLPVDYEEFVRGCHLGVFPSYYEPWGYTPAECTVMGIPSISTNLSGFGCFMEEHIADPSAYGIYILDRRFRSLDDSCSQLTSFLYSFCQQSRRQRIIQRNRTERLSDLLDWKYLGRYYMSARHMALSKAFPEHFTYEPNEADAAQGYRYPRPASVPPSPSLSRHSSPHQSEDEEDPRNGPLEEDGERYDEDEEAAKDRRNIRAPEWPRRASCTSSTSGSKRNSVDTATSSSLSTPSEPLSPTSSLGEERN

| Structure (SMILES) | Emax (PPAR-α; [2]) [%] | EC50 [1, 3] [nM] | Emax (PPAR-α; [4]) [%] | EC50 [1, 5] [nM] | Emax (PPAR-α; [6]) [%] |
| --- | --- | --- | --- | --- | --- |
| CC(=O)COc1cc(-c2ccc(OCc3cccc(C(=O)N4CCC[C@H]4C(=O)O)c3)cc2)cc(F)c1F [compound of Ex. 49, 1-[3-({[3′,4′-difluoro-5′-(2-oxopropoxy)biphenyl-4-yl]oxy}methyl)benzoyl]-L-proline] | 17 | 220 |  |  |  |
| O=C(O)[C@@H]1CCCN1C(=O)c1cccc(COc2ccc(-c3cccc4c3OCC4)cc2)c1 [compound of Ex. 5] |  |  | 10 | 500 |  |
| CC1(C)Cc2cc(F)cc(-c3ccc(OCc4cccc(C(=O)N5CCC[C@H]5C(=O)O)c4)cc3)c2O1 [compound of Ex. 22, 1-(3-{[4-(5-fluoro-2,2-dimethyl-2,3-dihydro-1-benzofuran-7-yl)phenoxy]methyl}benzoyl)-L-proline] |  | 180 |  |  | 15 |
| O=C1COc2c(cccc2-c2ccc(OCc3cccc(C(=O)N4CCC[C@H]4C(=O)O)c3)cc2)N1 [compound of Ex. 32, 1-(3-{[4-(3-oxo-3,4-dihydro-2H-1,4-benzoxazin-8-yl)phenoxy]methyl}benzoyl)-L-proline] |  | 750 |  |  | 3 |
| O=C(O)[C@@H]1CCCN1C(=O)c1cccc(COc2ccc(-c3cc(F)c(F)c4cc(CO)sc34)cc2)c1 [compound of Ex. 66, 1-[3-({4-[4,5-difluoro-2-(hydroxymethyl)-1-benzothien-7-yl]phenoxy}methyl)benzoyl]-L-proline] | 18 | 74 |  |  |  |
| CC(O)COc1cc(-c2ccc(OCc3cccc(C(=O)N4CCC[C@H]4C(=O)O)c3)cc2)cc(F)c1F (stereo partly drawn) [compound of Ex. 50, 1-[3-({[3′,4′-difluoro-5′-(2-hydroxypropoxy)biphenyl-4-yl]oxy}methyl)benzoyl]-L-proline] | 15 | 410 |  |  |  |
| O=C(O)[C@@H]1CCCN1C(=O)c1cccc(COc2ccc(-c3cc(F)c(F)c4c3OCC4)cc2)c1 [compound of Ex. 19, 1-(3-{[4-(4,5-difluoro-2,3-dihydro-1-benzofuran-7-yl)phenoxy]methyl}benzoyl)-L-proline] |  | 31 |  |  | 12 |
| O=C(O)[C@@H]1CCCN1C(=O)c1cccc(COc2ccc(-c3cc(F)c(F)cc3/C=N/O)cc2)c1 [compound of Ex. 52, 1-{3-[({4′,5′-difluoro-2′-[(hydroxyimino)methyl]biphenyl-4-yl}oxy)methyl]benzoyl}-L-proline] | 18 | 61 |  |  |  |
| O=C(O)[C@@H]1CCCN1C(=O)c1cccc(COc2ccc(-c3cc(F)c(F)c4cc(CO)oc34)cc2)c1 [compound of Ex. 70, 1-[3-({4-[4,5-difluoro-2-(hydroxymethyl)-1-benzofuran-7-yl]phenoxy}methyl)benzoyl]-L-proline] | 7.9 | 200 |  |  |  |
| O=C(O)[C@@H]1CCCN1C(=O)c1cccc(COc2ccc(-c3cccc4c3OCC=C4)cc2)c1 [compound of Ex. 9] |  |  | 11 | 320 |  |
| N#CCc1cc(F)c(F)cc1-c1ccc(OCc2cccc(C(=O)N3CCC[C@H]3C(=O)O)c2)cc1 [compound of Ex. 61, 1-[3-({[2′-(cyanomethyl)-4′,5′-difluorobiphenyl-4-yl]oxy}methyl)benzoyl]-L-proline] | 10 | 790 |  |  |  |
| O=C(O)[C@@H]1CCCN1C(=O)c1cccc(COc2ccc(-c3cccc4ccoc34)cc2)c1 [compound of Ex. 7] |  |  | 17 | 260 |  |
| O=C(O)[C@@H]1CCCN1C(=O)c1cccc(COc2ccc(-c3cc(F)c(F)c4ccoc34)cc2)c1 [compound of Ex. 15, 1-(3-{[4-(4,5-difluoro-1-benzofuran-7-yl)phenoxy]methyl}benzoyl)-L-proline] |  | 22 |  |  | 20 |
| N#CCCSc1cc(F)c(F)cc1-c1ccc(OCc2cccc(C(=O)N3CCC[C@H]3C(=O)O)c2)cc1 [compound of Ex. 72, 1-{3-[({2′-[(2-cyanoethyl)thio]-4′,5′-difluorobiphenyl-4-yl}oxy)methyl]benzoyl}-L-proline] | 15 | 190 |  |  |  |
| O=C(O)[C@@H]1CCCN1C(=O)c1cccc(COc2ccc(-c3cc(F)c(F)c4cc(/C=N/O)oc34)cc2)c1 [compound of Ex. 58, 1-{3-[(4-{4,5-difluoro-2-[(hydroxyimino)methyl]-1-benzofuran-7-yl}phenoxy)methyl]benzoyl}-L-proline] | 19 | 45 |  |  |  |
| O=C(O)[C@@H]1CCCN1C(=O)c1cccc(COc2ccc(-c3cccc4[nH]ccc34)cc2)c1 [compound of Ex. 26, 1-(3-{[4-(1H-indol-4-yl)phenoxy]methyl}benzoyl)-L-proline] |  | 160 |  |  | 13 |
